Results: patent US20230081426A1, “COMPOUNDS AND METHODS FOR KRAS MODULATION AND INDICATIONS THEREFOR” (Plexxikon Inc., priority 2020, published 2023)

Assays:
[1] = molecular target: T1, G12D-mutant human KRAS (amino acid residues 1-188) (Homo sapiens, UniProt P01116, G12D); experiment: KRAS Binding Disruption Assay (AlphaScreen; biotinylated KRpep-2d analogue or RAF1-RBD), G12D; conditions: KRAS G12D; geometric mean; read-out: KRAS GMean IC50 (uM) MUTATION: G12D
T1 construct: G12D or G12C-mutant human KRAS (amino acid residues 1-188) with FLAG tag; made in house; host or cells: E. coli
Summary of the method: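 Displacement format with mutant KRAS, biotinylated KRpep-2d analogue or RAF1-RBD (5-20 nM each) at pH 7.5 with 5 mM MgCl2.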

[2] = molecular target: T2, G12V-mutant human KRAS (amino acid residues 1-188) (Homo sapiens, UniProt P01116, G12V); experiment: KRAS Binding Competition Assay (AlphaScreen; biotinylated KRpep-2d analogue), G12V; conditions: geometric mean, read-out: KRAS GMean IC50 (uM) MUTATION: G12V
T2 construct: G12V-mutant human KRAS (amino acid residues 1-188) with FLAG tag was purified from E. coli; made in house; host or cells: E. coli
Procedure: Compound binding disrupts the interaction of KRpep-2d with KRAS, leading to a decrease in Alpha signal.
All assay components were prepared in 20 mM HEPES (pH 7.5), 100 mM NaCl, 5 mM MgCl2, 0.01% Tween-20, and 0.01% BSA. Biotinylated analogues of KRpep-2d were custom synthesized. The binding competition assays were performed using 10 nM of mutant KRAS and 10 nM of biotinylated KRpep-2d analogue. 19 μL of KRAS protein and 4 μL of biotinylated KRpep-2d were added to the wells of a 384-well plate containing 1 μL of various concentrations of test compound or DMSO vehicle. 16 wells containing KRAS, biotinylated KRpep-2d, and 5% DMSO served as high controls. 16 wells containing KRAS only and 5% DMSO served as low controls. Binding reactions were incubated for 1 hour at 25° C., then Anti-Flag Acceptor and Streptavidin Donor Alpha beads were added at a final concentration of 10 μg/mL for an additional hour at room temperature. Alpha signal was read out on a Perkin Elmer Envision HTS instrument. The percentage inhibition at individual compound concentrations relative to high and low controls was calculated. The data were analyzed by using nonlinear regression to generate IC50 values.

Row | IC50 [1] | IC50 [2] | Structure (SMILES)
1 | 0.0001 to 10 µM | 10 to 100 µM | Fc1cc2c(N3C[C@H]4CC[C@@H](C3)N4)nc(OCC34CCCN3CCC4)nc2c(F)c1-c1c[nH]c2cccc(F)c12 [P-0448, 4-((1R,5S)-3,8-diazabicyclo[3.2.1]octan-3-yl)-6,8-difluoro-7-(4-fluoro-1H-indol-3-yl)-2-((tetrahydro-1H-pyrrolizin-7a(5H)-yl)methoxy)quinazoline]
2 | 10 to 100 µM | – | Cc1nccc2[nH]cc(-c3ccc4c(N5C[C@H]6CC[C@@H](C5)N6)nc(OCC56CCCN5CCC6)nc4c3F)c12 [P-0605, 4-((1R,5S)-3,8-diazabicyclo[3.2.1]octan-3-yl)-8-fluoro-7-(4-methyl-1H-pyrrolo[3,2-c]pyridin-3-yl)-2-((tetrahydro-1H-pyrrolizin-7a(5H)-yl)methoxy)quinazoline]
3 | 0.0001 to 10 µM | – | N#CCCc1cccc2[nH]cc(-c3ccc4c(N5C[C@H]6CC[C@@H](C5)N6)nc(OCC56CCCN5CCC6)nc4c3F)c12 [P-0519, 3-(3-(4-((1R,5S)-3,8-diazabicyclo[3.2.1]octan-3-yl)-8-fluoro-2-((tetrahydro-1H-pyrrolizin-7a(5H)-yl)methoxy)quinazolin-7-yl)-1H-indol-4-yl)propanenitrile]
4 | 0.0001 to 10 µM | – | CN1C[C@@H](F)C[C@H]1COc1nc(N2C[C@H]3CC[C@@H](C2)N3)c2ccc(-c3cc(O)cc4ccccc34)c(F)c2n1 [P-0554, 4-(4-((1R,5S)-3,8-diazabicyclo[3.2.1]octan-3-yl)-8-fluoro-2-(((2S,4S)-4-fluoro-1-methylpyrrolidin-2-yl)methoxy)quinazolin-7-yl)naphthalen-2-ol]
5 | 0.0001 to 10 µM | – | Fc1c(-c2cccc3cccc(Cl)c23)ccc2c(N3C[C@H]4CC[C@@H](C3)N4)nc(OCC34CCCN3CCC4)nc12 [P-0570, 4-((1R,5S)-3,8-diazabicyclo[3.2.1]octan-3-yl)-7-(8-chloronaphthalen-1-yl)-8-fluoro-2-((tetrahydro-1H-pyrrolizin-7a(5H)-yl)methoxy)quinazoline]
6 | 0.0001 to 10 µM | – | Oc1cc(-c2ccc3c(N4C[C@H]5CC[C@@H](C4)N5)nc(N4CCC5(CCOCC5)C4)nc3c2F)c2ccccc2c1 [P-0527, 4-(4-((1R,5S)-3,8-diazabicyclo[3.2.1]octan-3-yl)-8-fluoro-2-(8-oxa-2-azaspiro[4.5]decan-2-yl)quinazolin-7-yl)naphthalen-2-ol]
7 | 0.0001 to 10 µM | – | Oc1cc(-c2ccc3c(N4C[C@H]5CC[C@@H](C4)N5Cc4ccccc4)nc(OCC45CCCN4CCC5)nc3c2)c2ccccc2c1 [P-0018, 4-(4-((1R,5S)-8-benzyl-3,8-diazabicyclo[3.2.1]octan-3-yl)-2-((tetrahydro-1H-pyrrolizin-7a(5H)-yl)methoxy)quinazolin-7-yl)naphthalen-2-ol]
8 | 0.0001 to 10 µM | – | O=[N+]([O-])c1cccc2cncc(-c3ccc4c(N5C[C@H]6CC[C@@H](C5)N6)nc(OCC56CCCN5CCC6)nc4c3F)c12 [P-0539, 4-((1R,5S)-3,8-diazabicyclo[3.2.1]octan-3-yl)-8-fluoro-7-(5-nitroisoquinolin-4-yl)-2-((tetrahydro-1H-pyrrolizin-7a(5H)-yl)methoxy)quinazoline]
9 | 0.0001 to 10 µM | – | Fc1c(-c2c[nH]c3cncc(Cl)c23)ccc2c(N3C[C@H]4CC[C@@H](C3)N4)nc(OCC34CCCN3CCC4)nc12 [P-0566, 4-((1R,5S)-3,8-diazabicyclo[3.2.1]octan-3-yl)-7-(4-chloro-1H-pyrrolo[2,3-c]pyridin-3-yl)-8-fluoro-2-((tetrahydro-1H-pyrrolizin-7a(5H)-yl)methoxy)quinazoline]

The next lines start with the compound.

Row | Structure (SMILES) | IC50 [1] | IC50 [2]
10 | Cc1nc2cc(-c3ccc4c(N5C[C@H]6CC[C@@H](C5)N6)nc(OC[C@@H]5CCCN5C)nc4c3)ccc2[nH]1 [P-0163, 4-((1R,5S)-3,8-diazabicyclo[3.2.1]octan-3-yl)-7-(2-methyl-1H-benzo[d]imidazol-5-yl)-2-(((S)-1-methylpyrrolidin-2-yl)methoxy)quinazoline] | 100 to 1000 µM | 100 to 1000 µM
11 | CN1CCC[C@H]1COc1nc(N2C[C@H]3CC[C@@H](C2)N3C(=O)C2CCC(=O)N2)c2ccc(-c3cc(O)cc4ccccc34)c(F)c2n1 (stereo partly drawn) [P-0396, 5-((1R,5S)-3-(8-fluoro-7-(3-hydroxynaphthalen-1-yl)-2-(((S)-1-methylpyrrolidin-2-yl)methoxy)quinazolin-4-yl)-3,8-diazabicyclo[3.2.1]octane-8-carbonyl)pyrrolidin-2-one] | 0.0001 to 10 µM | 0.0001 to 10 µM
12 | CN1CCC[C@H]1COc1nc(N2[C@@H]3CC[C@H]2CN(C(=O)[C@H]2CCCN2)C3)c2ccc(-c3cc(O)cc4ccccc34)cc2n1 [P-0205, 4-((1R,5S)-3-(D-prolyl)-3,8-diazabicyclo[3.2.1]octan-8-yl)-7-(3-hydroxynaphthalen-1-yl)-2-(((S)-1-methylpyrrolidin-2-yl)methoxy)quinazoline] | 10 to 100 µM | 100 to 1000 µM
13 | CN1CCC[C@H]1COc1nc(N2C[C@H]3CC[C@@H](C2)N3C(=O)CCS(N)(=O)=O)c2ccc(-c3cc(O)cc4ccccc34)c(F)c2n1 [P-0105, 3-((1R,5S)-3-(8-fluoro-7-(3-hydroxynaphthalen-1-yl)-2-(((S)-1-methylpyrrolidin-2-yl)methoxy)quinazolin-4-yl)-3,8-diazabicyclo[3.2.1]octan-8-yl)-3-oxopropane-1-sulfonamide] | 0.0001 to 10 µM | 0.0001 to 10 µM
14 | Oc1cc(-c2ccc3c(N4C[C@H]5CC[C@@H](C4)N5)nc(OCC4CCOC4)nc3c2)c2ccccc2c1 (stereo partly drawn) [P-0081, 4-(4-((1R,5S)-3,8-diazabicyclo[3.2.1]octan-3-yl)-2-((tetrahydrofuran-3-yl)methoxy)quinazolin-7-yl)naphthalen-2-ol] | 0.0001 to 10 µM | –
15 | CNCC1CN(c2nc(N3C[C@H]4CC[C@@H](C3)N4)c3ccc(-c4cc(O)cc5ccccc45)c(F)c3n2)C1 [P-0557, 4-(4-((1R,5S)-3,8-diazabicyclo[3.2.1]octan-3-yl)-8-fluoro-2-(3-((methylamino)methyl)azetidin-1-yl)quinazolin-7-yl)naphthalen-2-ol] | 0.0001 to 10 µM | –
16 | CC(C)C(COC(=O)C(F)(F)F)COc1nc(N2C[C@H]3CC[C@@H](C2)N3)c2ccc(-c3cc(O)cc4ccccc34)c(F)c2n1 (stereo partly drawn) [P-0575, 2-(((4-((1R,5S)-3,8-diazabicyclo[3.2.1]octan-3-yl)-8-fluoro-7-(3-hydroxynaphthalen-1-yl)quinazolin-2-yl)oxy)methyl)-3-methylbutyl 2,2,2-trifluoroacetate] | 0.0001 to 10 µM | –
17 | CN1CCC[C@H]1COc1nc(N2C[C@H]3CC[C@@H](C2)N3)c2cnc(-c3cc(O)cc4ccccc34)cc2n1 [P-0004, 4-(4-((1R,5S)-3,8-diazabicyclo[3.2.1]octan-3-yl)-2-(((S)-1-methylpyrrolidin-2-yl)methoxy)pyrido[4,3-d]pyrimidin-7-yl)naphthalen-2-ol] | 0.0001 to 10 µM | –
18 | CNCC1(CC#N)CCN(c2nc(N3C[C@H]4CC[C@@H](C3)N4)c3ccc(-c4cc(O)cc5ccccc45)c(F)c3n2)C1 (stereo partly drawn) [P-0529, 2-(1-(4-((1R,5S)-3,8-diazabicyclo[3.2.1]octan-3-yl)-8-fluoro-7-(3-hydroxynaphthalen-1-yl)quinazolin-2-yl)-3-((methylamino)methyl)pyrrolidin-3-yl)acetonitrile] | 0.0001 to 10 µM | –
19 | CN(C)C(=O)COc1nc(N2C[C@H]3CC[C@@H](C2)N3)c2ccc(-c3cc(O)cc4ccccc34)cc2n1 [P-0070, 2-((4-((1R,5S)-3,8-diazabicyclo[3.2.1]octan-3-yl)-7-(3-hydroxynaphthalen-1-yl)quinazolin-2-yl)oxy)-N,N-dimethylacetamide] | 10 to 100 µM | –
20 | CN1CCC[C@H]1COc1nc(N2C[C@@H]3C[C@H]2CN3)c2ccc(-c3cc(O)cc4ccccc34)cc2n1 [P-0052, 4-(4-((1S,4S)-2,5-diazabicyclo[2.2.1]heptan-2-yl)-2-(((S)-1-methylpyrrolidin-2-yl)methoxy)quinazolin-7-yl)naphthalen-2-ol] | 0.0001 to 10 µM | –
21 | CNC1CN(c2nc(N3C[C@H]4CC[C@@H](C3)N4)c3ccc(-c4cc(O)cc5ccccc45)c(F)c3n2)C1 [P-0601, 4-(4-((1R,5S)-3,8-diazabicyclo[3.2.1]octan-3-yl)-8-fluoro-2-(3-(methylamino)azetidin-1-yl)quinazolin-7-yl)naphthalen-2-ol] | 0.0001 to 10 µM | –
22 | CN(C)CC1CN(c2nc(N3C[C@H]4CC[C@@H](C3)N4)c3ccc(-c4cc(O)cc5ccccc45)c(F)c3n2)C1 [P-0565, 4-(4-((1R,5S)-3,8-diazabicyclo[3.2.1]octan-3-yl)-2-(3-((dimethylamino)methyl)azetidin-1-yl)-8-fluoroquinazolin-7-yl)naphthalen-2-ol] | 0.0001 to 10 µM | –
23 | OCC1(CNc2nc(N3C[C@H]4CC[C@@H](C3)N4)c3ccc(-c4cc(O)cc5ccccc45)c(F)c3n2)CC1 [P-0582, 4-(4-((1R,5S)-3,8-diazabicyclo[3.2.1]octan-3-yl)-8-fluoro-2-(((1-(hydroxymethyl)cyclopropyl)methyl)amino)quinazolin-7-yl)naphthalen-2-ol] | 0.0001 to 10 µM | –
